Measurements published in paper PMC6478823, “A suite of phenotypic assays to ensure pipeline diversity when prioritizing drug-like Cryptosporidium growth inhibitors” (Nature Communications, 2019).

Experiments:
[1] = tested on: C. parvum; test: DNA replication assay (EdU incorporation); assay type: cell-based, Cryptosporidium parvum; settings: 10 mM, positive control
Source text: Following cell invasion, Cryptosporidium trophozoites grow and multiply to give rise to multinucleated type I meronts (Fig. 3a). The thymidine analog 5-ethynyl-2′-deoxyuridine (EdU) is efficiently incorporated into newly synthesized DNA, and can be detected using click chemistry. We used EdU to measure parasite intracellular DNA replication, as a surrogate for the more complex phenotype of intracellular growth and division. The approach for differentially labeling newly synthesized parasite DNA compared to host cell DNA was to take advantage of the fact that C. parvum replicates more quickly than the nearly confluent host cells. Thus, by adding EdU shortly before egress, it was possible to preferentially label replicating parasites (Fig. 3b, c). DNA staining with Hoechst labeled all of the host and parasite DNA, making it challenging to visualize and quantify parasite DNA. A simple DNA stain would also not distinguish pre-existing DNA from newly synthesized DNA (Fig. 3c). In contrast, EdU labeling only occurred with incorporation into newly synthesized DNA. Incorporated EdU was then easily stained for immunofluorescence and labeled parasites were quantified using high-content microscopy and an NIH ImageJ macro (Fig. 3c, DMSO condition). The […] hydroxyurea (10 mM), a known inhibitor of DNA replication, was used as a positive control for assay validation. […] Compounds with activity in this assay cannot be concluded to specifically target DNA replication, which is a complex phenotype.
Confluent HCT-8 cell monolayers in glass bottom plates were infected with C. parvum, and compounds were added at EC90 following invasion. At 9 h post-infection, 10 µM EdU was added, followed by incubation for another 2 h, and then washing, fixing, and staining for microscopy. […] 40 × dry objective (NA = 0.7); scale = 5 µm. Arrows indicate selected parasites with EdU-labeled DNA. d Quantification of EdU incorporation. […] Data are mean and SD of 2–5 biological replicates.
After incubation of cells with EdU for 2 h, cells were washed 3 times with PBS-D-gal and then fixed with PBS containing 4% PFA. Cells were then permeabilized and stained for EdU using the Click-iT® assay kit (Thermo Fisher Scientific, catalog# C10340) as per the manufacturer’s instructions. Cells were then imaged by focusing on parasites (note that the host cell nuclei are in a different focal plane) using a 40 × dry objective (0.7 NA) and EdU, and lectin numbers quantified using ImageJ software and the custom macro in Supplementary Method 1.

[2] = tested on: HCT-8 cell DNA replication; test: Host cell DNA replication (EdU labeling); assay type: cell-based, human; settings: 10 mM, positive control

NC(=O)NO [hydroxyurea]
effect on parasite DNA replication [1]: blocked both parasite and HCT-8 cell DNA replication
effect on HCT-8 cell DNA replication [2]: blocked both parasite and HCT-8 cell DNA replication
